Data reported in paper PMC7395048 (Archives of Toxicology, 2020).
Entries after “also recorded” stand apart in the source; their conditions may differ. Marks after values point to notes of the source that are not given here.

Experiments:
[1] = RED assay, unbound fraction in in vitro hiPSC-CM MEA assay medium; conditions: in vitro hiPSC-CM MEA assay medium (serum-free)
Protocol: (§1) Then, 25 µl of post-dialysis samples were collected from the sample chambers and transferred to test sample tubes followed by an addition of 25 µl PBS. Equal volumes of post-dialysis samples collected from the buffer chamber which were then mixed with 25 µl of in vitro medium or human plasma in the buffer sample tubes. Then, both samples were precipitated using 300-µl cold acetonitrile/water (90/10 v/v). The samples were put on ice for 30 min followed by centrifugation for 30 min at 15,000g. Then, supernatants were collected for UPLC–PDA analysis.
(§2) The measurements were performed in triplicate in two independent experiments.

[2] = set-up: method as in Hsu et al. ([2013]); conditions: subjects on methadone maintenance treatment; ref Hsu et al. ([2013]); cited from earlier work
[3] = cited from earlier work
[4] = RED assay, unbound fraction in pooled human plasma
Protocol: as §1, §2

[5] = In vitro incubations with pooled human liver microsomes; conditions: EDDP as substrate, 1000 µM
Protocol: The test concentrations were chosen to enable adequate analysis of Michaelis–Menten kinetics. After one-min pre-incubation of this solution at 37 °C, the reactions were initiated by addition of human liver microsomes giving a final concentration of 0.5 mg/ml microsomal protein and incubations were performed in a shaking water bath at 37 °C for 40 min. Control incubations were performed in the absence of NADPH which was replaced with Tris–HCl. The reactions were terminated by addition of 40-µl ice-cold acetonitrile. Samples were kept on ice for at least 20 min and then centrifuged at 18,000g for 5 min at 4 °C to precipitate microsomal proteins.
Vmax and Km were obtained by fitting the data to Eq. (2) in GraphPad Prism 5.0 (GraphPad Software Inc.). Data were collected from three independent experiments and each data point is presented as the mean value ± SD.

hiPSC-CM = hiPSC-CM MEA assay (FPDc, extracellular field potential); conditions: for cytotoxicity at the test concentrations: up to 30 µM, data not shown
Protocol: Briefly, each well of the MEA chips was precoated with 50 μg/ml fibronectin for 3 h in the incubator at 37 °C with 5% CO2. The fibronectin coating solution was aspirated before seeding. Cells were thawed in the incubator at 37 °C for exactly 4 min and carefully transferred to a 50-ml tube. The original vial was rinsed with serum free Pluricyte® Cardiomyocyte Medium and added drop-wise to the tube containing the cardiomyocytes. […] Then, the supernatant was removed and medium was drop-wisely added to reach the aimed concentration of cells in the suspension (10^4 cells/μl). 2-μl cell suspension per well was placed on the six-well MEA chips in a density of 10^4 cells/μl. After 3-h incubation (37 °C, 5% CO2), 200 μl of medium was filled into each well of the MEA chips which were subsequently incubated at 37 °C with 5% CO2 and refreshed with medium every 2 days.
At 7–8 days after seeding, MEA chips were placed on the headstage of a MEA2100-system (MCS GmbH) integrated with the chamber providing a stable atmosphere (37 °C, 5% CO2) to record the extracellular field potential (Fig. 2) of spontaneous beating hiPSC-CM. After an equilibration time of 20 min, half of the medium (100 μl) in each well was replaced by culture medium containing 0.2% (v/v) DMSO to reach a final concentration of 0.1% (v/v) DMSO, which was used as baseline condition. […] At each concentration, the extracellular field potential was recorded for 1 min after 10-min exposure. […] Same test concentrations were chosen for EDDP and EMDP, which enables definition of concentration-dependent curves for EDDP and EMDP that allow potency comparison.
One well of 0.1% (v/v) DMSO on each MEA chip was used as the vehicle control well and run at the same time as the compound exposure wells to correct for time- and DMSO-dependent effects on the field potential. A detailed exposure scheme can be found in Fig. S1. Data were collected using Cardio 2D software (MCS GmbH) with a sample frequency of 10 kHz and a 0.1–3.5-kHz band-pass filter.
Field potential duration (FPD) was defined as duration between the beginning of the sodium spike and the repolarizing peak (Fig. 2). RR-intervals were defined as the duration between two depolarization peaks (Fig. 2). The FPD and RR-interval were measured as the average of at least 30 beats from 1-min recording at each concentration of the test compound.
In this formula, the FPD and RR-interval are expressed in seconds. Data were collected from at least three independent experiments (4–8 wells, 26–38 electrodes), using a new vial of cells (all from the same batch) at each independent experiment. […] The concentrations inducing irregularities in the field potential trace (Fig. S2) were also noted.
The concentration–response curves were plotted with GraphPad Prism 5.0 using the four-parameters logistic fit (GraphPad Software Inc., San Diego, USA). Each data point is presented as the mean value of at least three independent experiments ± standard deviation (SD). Statistical significance of the changes in response of cells exposed to the compound compared to the solvent control was analyzed by one-way ANOVA followed by post Dunnett test. Values of p < 0.05 were regarded as statistically significant (p < 0.05: *, p < 0.01: ** and p < 0.001: ***). Statistical analysis was performed by GraphPad Prism 5.0 (GraphPad Software Inc.).

hERG channels = conditions: ref Eap et al. [2007], cited from earlier work
[6] = ref Foster [2001]; cited from earlier work

| SMILES | fraction unbound at 5 h, 150 µM [1] | BPr (blood/plasma ratio) [2] | free blood Cmax of EDDP ([3]; oral methadone 57.5 mg/day, estimated from reported EDDP data, ref De Vos et al. ([1995])) [µM] | fraction unbound at 5 h, 150 µM [4] | EMDP formation from EDDP [5] | BMC20, prolongation of FPDc (hiPSC-CM; 20% change in FPDc over control, cumulative addition, 10-min exposure) [µM] | unbound BMC20 (hiPSC-CM; BMC20 corrected for unbound fraction in medium) [µM] | concentration at which cessation of beating was observed (hiPSC-CM; human, 10 min) [µM] | concentration from which arrhythmia-like waveforms were induced (hiPSC-CM; tested up to 30 µM) [µM] | cytotoxicity at the test concentrations (hiPSC-CM) | hERG channel block (hERG channels; Katchman et al. [2002]) | recovery of EDDP in feces [6] | in vivo total plasma concentration of EMDP ([3]; after clinical relevant dosing of methadone, ref Alburges et al. [1996]) | concentration shortening the FPDc by 20% (BMC20 for decreasing FPDc) (hiPSC-CM; cumulative addition, 10-min exposure) [µM] | concentration causing beating arrest in certain wells (hiPSC-CM; in certain wells) [µM] | arrhythmia-type waveforms / FPDc prolongation (hiPSC-CM; test range 0.1-30 µM) | hERG channel inhibition (hERG channels) |
| --- | --- | --- | --- | --- | --- | --- | --- | --- | --- | --- | --- | --- | --- | --- | --- | --- | --- |
| CC=C1N(C)C(C)CC1(c1ccccc1)c1ccccc1 (stereo not drawn) [EDDP, 2-ethylidene-1,5-dimethyl-3,3-diphenylpyrrolidine] | 0.9 ± 0.072 | 0.87^c | 0.05 | 0.3 ± 0.015 | formation of EMDP was neither detectable | 2.3 | 2.07 | 30 | ≥ 3 | no cytotoxicity was observed | weaker hERG channel blocker compared to methadone | up to 39% |  |  |  |  |  |
| CCC1=NC(C)CC1(c1ccccc1)c1ccccc1 (stereo not drawn) [EMDP, 2-ethyl-5-methyl-3,3-diphenylpyrroline] |  |  |  |  |  |  |  |  |  | no cytotoxicity was observed |  |  | less than 0.04 µM | 3.8 | 30 | without inducing arrhythmia-type waveforms; also recorded: Neither FPDc prolongation nor arrhythmia-type waveforms were observed | not inhibit hERG channels |
